Experiments:
[1] = tested on: male BKS.Cg-m+/+Leprdb mice; test: Fasting plasma glucose levels in diabetic mice (Example 9); assay type: in vivo
[2] = tested on: hypertriglyceridemic patients; test: Hypertriglyceridemic patients with high or low HDL, 1200 mg daily: plasma triglycerides (Example 2); assay type: in vivo, human; details: for Triglyceride levels: 4 patients with low HDL levels
Method: Five hypertriglyceridemic patients had high baseline HDL levels (>50 mg/dL, 64.2±8.5, n=10, mean±S.D.) and four hypertriglyceridemic patients had low HDL levels 40.4±4.1, n=8). They were treated as before, as described in Example 1, except they received 1200 mg of 16α-fluoro-5-androsten-17-one daily. Controls were set up so that they received 1200 mg of placebo. The triglyceride concentration in the plasma were measured pretreatment and at the end of the study.
In those patients with high HDL levels, the triglycerides fell from 330±163 (n=10) to 214±56.1 (n=5). However, in 4 patients with low HDL levels (40.0±4.1), treatment with 1200 mg of 16α-fluoro-5-androsten-17-one daily for 3 to 12 weeks lowered triglyceride levels from 245±55.1 (n=8) to 139±10.6 (n=4), p<0.01.

Syndrome X patients = test: Randomized double-blind crossover trial in Syndrome X patients (Example 5c); assay type: in vivo, human; details: 600 mg twice daily, four weeks
Excerpt: Eleven patients were enrolled in the trial. The average age was 50.2±12.8 years, and there were 10 males and 1 patient enrolled. Body weight and body mass index were 87.8±17.9 kg and 27.7±3.0 kg/m^2, respectively. All patients carried a diagnosis of dyslipidemia, including elevated triglycerides, for an average of 11.7±6.4 years.
In this randomized, double-blind, crossover study, the 11 patients underwent eligibility screening (physical exam, medical history, laboratory evaluation, PSA, TSH), followed by a six-week lead-in phase (study weeks 1-6) that included diet (AHA Step II), and discontinuation of lipid-lowering therapy. At week 4, qualifying lipid testing was performed, followed by randomization to study treatment two weeks later. Four-weeks of each of the two study treatments, fluasterone 600 mg twice daily or placebo, were then administered (weeks 7 thru 10 and 15 thru 18), separated by a 4-week washout period. At baseline, and at the end of each treatment period measurement of total serum cholesterol, triglycerides, apolipoprotein A1, and the cholesterol and triglyceride content of VLDL, LDL, and HDL was done.
The baseline triglyceride level (mg/dL) was 509±184 and the baseline HDL level (mg/dL) was 33.0±3.5.

[3] = tested on: male BKS.Cg-m+/+Leprdb mice; test: Fasting plasma triglyceride levels in diabetic mice (Example 9); assay type: in vivo
Excerpt: Eight week old male BKS.Cg-m^+/+Lepr^db mice were obtained from Jackson Laboratories. These mice have a point mutation in the leptin receptor gene and produce a truncated receptor with impaired signaling capacity. These animals are severely insulin resistant and manifest an uncontrolled rise in blood sugar, severe depletion of the insulin-producing beta-cells of the pancreatic islets, and death by 10 months of age. The male animals also have very low plasma testosterone levels and as a consequence undeveloped seminal vesicle glands. Administration of androgens to these mice produces an increase in seminal vesicle weights similar to that seen in castrated males. Thus these animals can be used to assess androgenic potency of various compounds.
A week later, the mice were treated subcutaneously (s.c.) with 0.05 mL fluasterone (16α-fluoro-5-androsten-17-one) suspended in an Emulphor-saline vehicle to give either a dose of 5 mg/kg s.c. or 20 mg/kg s.c. or intraperitoneally (i.p.) with 0.05 mL of fluasterone suspended in an Emulphor-saline vehicle to give a dose of 5 mg/kg. The Control mice received the Emulphor-saline vehicle s.c.
All the mice were anesthetized lightly with isoflurane before treatment with fluasterone to minimize the risk of stressing the mice while giving the s.c. dose. Their food was removed the afternoon before administration with drug and the chow was to the mice the next morning immediately after treatment. All the mice had their chow removed daily and restored just after fluasterone administration. During the week, the mice had access to chow for approximately 6½ hours, while on the weekends, the mice had approximately 4½ hours of access to chow. Mice were treated daily (weekdays and weekends).
Plasma triglyceride levels were determined with a Sigma kit (334-UV ). The determination is based on the enzymatic hydrolysis of triglycerides to glycerol and free fatty acids by lipase. Glycerol is subsequently phosphorylated by ATP to produce glycerol-1-phosphate and ADP. ATP is regenerated by a pyruvate kinase-catalyzed reaction between ADP and phosphoenol pyruvate. […] NADH absorbs at 340 nm, thus the decrease in absorbance, measured at this wavelength, is directly proportional to the triglyceride concentration in the sample.
Triglyceride Reagent A (containing ATP, lactate dehydrogenase, lipase, NADH, phosphoenol pyruvate, pyruvate kinase) and Triglyceride Reagent B were reconstituted with 10 mL and 2 mL of distilled water respectively. The Sample Regent is prepared by adding 0.25 mL of Triglyceride Reagent B to 10 mL of Triglyceride Reagent A. Blank, standards (50, 100 and 200 mg/dL) and sample tubes were prepared. One mL of Sample Reagent is added to all tubes. To the Blank tube, 20 μL of distilled water is added. For each Sample tube, 20 μL of plasma is added to the tube. All tubes were incubated at room temperature for 10 minutes. The tubes were read against a Reference containing distilled water. Triglyceride concentration in the samples were calculated by subtracting the absorbance of the Sample from the absorbance of the Blank and using the following formula: […]

[4] = tested on: normal young men and women; test: Phase I trial, oral fluasterone 14 days: HDL levels (Example 5a); assay type: in vivo, human
Method: (a) In a phase I trial in normal young men and women fluasterone was administered in a daily oral dose of 800 mg or 1600 mg for 14 days. The effect of this treatment on HDL levels in males and females is seen in the table hereinbelow.

[5] = 200 mg/kg oral, treatment day 0
[6] = 200 mg/kg oral, treatment day 14, less than oral Control, p < 0.001
[7] = 200 mg/kg oral, treatment day 17, less than oral Control, p < 0.001

In the case of `C[C@]12CCCCC1=CC[C@@H]1[C@@H]2CC[C@]2(C)C(=O)[C@H](F)C[C@@H]12` [fluasterone, 16α-fluoro-5-androsten-17-one], the “Fasting Plasma Glucose Levels” value ([1]; 5 mg/kg i.p., treatment day 0) is reported as 270 ± 81.9 mg/dL, the “Fasting Plasma Glucose Levels” value ([1]; 5 mg/kg i.p., treatment day 7) is reported as 434 ± 264 mg/dL and the “Fasting Plasma Glucose Levels” value ([1]; 5 mg/kg i.p., treatment day 14) is reported as 410 ± 32.1 mg/dL. The “Fasting Plasma Glucose Levels” value ([1]; 5 mg/kg i.p., treatment day 17, greater than s.c. Control, p < 0.01) was 635 ± 77.3^3 mg/dL, the “Fasting Plasma Glucose Levels” value ([1]; 5 mg/kg s.c., treatment day 0) was 245 ± 102 mg/dL and the “Fasting Plasma Glucose Levels” value ([1]; 5 mg/kg s.c., treatment day 7) was 173 ± 58.3 mg/dL. The “Fasting Plasma Glucose Levels” value ([1]; 5 mg/kg s.c., treatment day 14, less than s.c. Control, p < 0.001) was 134 ± 29.8^1 mg/dL, the “Fasting Plasma Glucose Levels” value ([1]; 5 mg/kg s.c., treatment day 17, less than s.c. Control, p < 0.001) was 96.0 ± 18.5^1 mg/dL and the “Fasting Plasma Glucose Levels” value [1, 5] was 245 ± 72.1 mg/dL. For the same molecule, the “Fasting Plasma Glucose Levels” value ([1]; 200 mg/kg oral, treatment day 7) was 181 ± 69.3 mg/dL, the “Fasting Plasma Glucose Levels” value [1, 6] was 107 ± 12.2^2 mg/dL and the “Fasting Plasma Glucose Levels” value [1, 7] was 104 ± 24.8^2 mg/dL. For the same molecule, the Triglyceride levels ([2]; after 1200 mg daily for 3 to 12 weeks, p<0.01) was 139±10.6, the Triglyceride levels ([2]; pretreatment) was 245±55.1 and the Triglycerides ([2]; patients with high HDL levels (>50 mg/dL), pretreatment) was 330±163. The Triglycerides ([2]; patients with high HDL levels, after 1200 mg daily) was 214±56.1, the “Change in HDL levels, least square means±S.E.M.” value (Syndrome X patients; baseline 33.0±3.5 mg/dL, p=0.068 vs placebo) was −5.8±4.1 and the “Change in triglyceride levels, least square means±S.E.M.” value (Syndrome X patients; baseline 509±184 mg/dL, p<0.005 vs placebo) was −165±76. For the same molecule, the “Fasting Plasma Triglyceride Levels” value ([3]; 5 mg/kg i.p., treatment day 0) was 136 ± 38.4 mg/dL, the “Fasting Plasma Triglyceride Levels” value ([3]; 5 mg/kg i.p., treatment day 7, less than s.c. Control, p < 0.02) was 91.1 ± 14.5^2 mg/dL and the “Fasting Plasma Triglyceride Levels” value ([3]; 5 mg/kg i.p., treatment day 14, less than s.c. Control, p < 0.01) was 115 ± 14.2^4 mg/dL. For the same molecule, the “Fasting Plasma Triglyceride Levels” value ([3]; 5 mg/kg i.p., treatment day 17) was 116 ± 17.0 mg/dL, the “Fasting Plasma Triglyceride Levels” value ([3]; 5 mg/kg s.c., treatment day 0) was 126 ± 20.9 mg/dL and the “Fasting Plasma Triglyceride Levels” value ([3]; 5 mg/kg s.c., treatment day 7, less than s.c. Control, p < 0.02) was 115 ± 33.3^2 mg/dL. For the same molecule, the “Fasting Plasma Triglyceride Levels” value ([3]; 5 mg/kg s.c., treatment day 14, less than s.c. Control, p < 0.01) was 115 ± 15.7^4 mg/dL, the “Fasting Plasma Triglyceride Levels” value ([3]; 5 mg/kg s.c., treatment day 17) was 115 ± 13.7 mg/dL and the “Fasting Plasma Triglyceride Levels” value [3, 5] was 126 ± 18.6 mg/dL. The “Fasting Plasma Triglyceride Levels” value ([3]; 200 mg/kg oral, treatment day 7, less than oral Control, p < 0.01) was 107 ± 38.9^1 mg/dL, the “Fasting Plasma Triglyceride Levels” value [3, 6] was 95.7 ± 15.6^3 mg/dL and the “Fasting Plasma Triglyceride Levels” value [3, 7] was 100 ± 13.1^3 mg/dL. For the same molecule, the “HDL Levels” value ([4]; 800 mg daily oral for 14 days, Females (6), treatment, less than pretreatment, p < 0.015) was 46.1 ± 6.2 mg/dL, the “HDL Levels” value ([4]; 800 mg daily oral for 14 days, Males (6), treatment) was 45.3 ± 15.9 mg/dL and the “HDL Levels” value ([4]; 800 mg daily oral, Females (6), pretreatment) was 59.2 ± 7.0 mg/dL. The “HDL Levels” value ([4]; 800 mg daily oral, Males (6), pretreatment) was 50.3 ± 20.1 mg/dL, the “HDL Levels” value ([4]; 1600 mg daily oral for 14 days, Females (5), treatment) was 43.0 ± 8.1 mg/dL and the “HDL Levels” value ([4]; 1600 mg daily oral for 14 days, Males (7), treatment) was 40.2 ± 7.4 mg/dL. The “HDL Levels” value ([4]; 1600 mg daily oral, Females (5), pretreatment) was 45.3 ± 10.1 mg/dL and the “HDL Levels” value ([4]; 1600 mg daily oral, Males (7), pretreatment) was 46.1 ± 6.6 mg/dL.

Source: US20040019026A1, “Compounds useful for treating hypertriglyceridemia” (priority 2000, published 2004)
